Legend:
[1] = pKa value was determined; assay type: physicochemical
[2] = Area under the concentration time curve in rat after 40 mg/kg oral dosage; assay type: ADME, organism-based; design: dose 40 mg/kg, route oral; unit not given here; details: in vivo
[3] = Area under the concentration time curve in human after 100 mg/kg oral dosage; assay type: ADME, organism-based; design: dose 100 mg/kg, route oral; unit not given here; details: in vivo

| SMILES | pKa [1] | AUC [2] | AUC [3] |
| --- | --- | --- | --- |
| Cc1cc(C)c(Nc2nc(Nc3ccc(C#N)cc3)ncc2Cl)c(C)c1 | 3.6 |  |  |
| Cc1cc(C#N)cc(C)c1Oc1nc(Nc2ccc(C#N)cc2)nc(N)c1Br [ETRAVIRINE] | 3.5 |  |  |
| Cc1cc(C#N)cc(C)c1Oc1nc(Nc2ccc(C#N)cc2)nc(CO)c1Br | 2 | 0.6 |  |
| Cc1cc(C)c(Nc2nc(N)nc(Nc3ccc(C#N)cc3)n2)c(C)c1 | 3.8 |  |  |
| N#Cc1ccc(Nc2nc(N)nc(Oc3c(Cl)cccc3Cl)n2)cc1 | 1.9 | 0.6 |  |
| Cc1cc(C#N)cc(C)c1Oc1nc(Nc2ccc(C#N)cc2)ncc1Br | 2.7 |  |  |
| N#Cc1ccc(Nc2nc(N)nc(Cc3c(Cl)cccc3Cl)n2)cc1 | 3.1 | 1.5 |  |
| N#Cc1ccc(Nc2nc(N)nc(Cc3c(Cl)ccc4[nH]ccc34)n2)cc1 | 3.3 | 67.5 |  |
| N#Cc1ccc(Nc2nc(Cc3c(Cl)cccc3Cl)nc(NO)n2)cc1 | 2.5 | 0.1 | 0.1 |
| N#Cc1ccc(Nc2nc(N)cc(Cc3c(Cl)cccc3Cl)n2)cc1 |  | 7.3 |  |
| Cc1cc(C#N)cc(C)c1Nc1ccnc(Nc2ccc(C#N)cc2)n1 | 5.1 | 49.3 | 8.2 |
| N#Cc1ccc(Nc2nc(N)nc(Cc3c(Cl)ccc(Cl)c3Cl)n2)cc1 | 2.8 | 4.4 |  |
| Cc1cc(C)c(Nc2ncnc(Nc3ccc(C#N)cc3)n2)c(C)c1 | 2.6 |  |  |

— ChEMBL document CHEMBL1142731, “Concentration and pH dependent aggregation of hydrophobic drug molecules and relevance to oral bioavailability” (J Med Chem, 2005)
